Data taken from PubChem BioAssay AID489041 (Sanford-Burnham Center for Chemical Genomics, 2010).
Activity calls are given as the source filed them. No rule for the calls is given here.

Test system: HEK-293T NF-kB luciferase reporter counterscreen, luminescence
Test: NF-kB reporter inhibition in HEK-293T, dose response, counter-screen for T-cell antigen receptor NF-kB inhibitors, HEK-293T cells, luminescence (AID 489041)

SMILES	IC50
CC(C)(C)c1ccc(C(=O)O/N=C(\N)c2ccccn2)cc1	0.23 µM
Cc1ccc(C)c(NS(=O)(=O)c2ccc(-c3cnc(C4CC4)o3)cc2)c1	0.42 µM
CC(=O)c1c(C)[nH]c(C(=O)OCC(=O)Nc2ccc(C)cc2[N+](=O)[O-])c1C	0.79 µM
CCOc1ccccc1NC(=O)Cn1nnc(C(=O)NCc2ccco2)c1N	26.3 µM (inactive)
Cn1nc(C(C)(C)C)cc1C(=O)NCc1cc(F)cc2c1OCOC2	2.47 µM
Brc1ccc2c(c1)C(C1=NCCN1)c1ccccc1CS2 (stereo unspecified)	> 80 µM (inactive)
COC(=O)c1cn(NC(=O)c2cc([N+](=O)[O-])ccc2F)c(=O)c2ccccc12	4.34 µM
Cc1ccc(NC(=O)C2=C(c3ccccc3)S(=O)(=O)CCS2(=O)=O)cc1	8.74 µM
Cn1cc(/C=N/n2cnc3scc(-c4ccc(Cl)cc4)c3c2=O)c2ccccc21	0.22 µM
COc1ccc(NC(=O)C(=O)NCC2CCCN2S(=O)(=O)c2ccc(C)cc2)cc1 (stereo unspecified)	0.69 µM
Cc1ccc2[nH]c3c(c2c1)CCCC3NC(=O)CCl (stereo unspecified)	7.68 µM
CCOc1ccc(NC(=O)c2cc3c(C)nc4ccccc4c3o2)cc1	6.08 µM
O=C(Nc1cccc(C(F)(F)F)c1)c1sc(Cl)nc1C(F)(F)F	40.6 µM (inactive)
COc1cc(C(=O)N2CCN(c3cccc(C)c3C)CC2)cc(OC)c1OC	12.5 µM
COc1ccccc1N1CCN(C(=O)C2c3ccccc3Oc3ccccc32)CC1	14.2 µM
COc1ccc(CS(=O)(=O)/C(Cl)=C(/Cl)C(=O)Nc2ccc(OC)nc2)cc1	3.46 µM
COc1cc(C2c3cc4c(cc3CC3COC(=O)C32)OCO4)cc(OC)c1OC (stereo unspecified)	> 80 µM (inactive)
O[C@@H]1[C@@H](O)C=C2CCN3Cc4cc5c(cc4[C@H]1C23)OCO5 (stereo partly specified)	1.97 µM
CC(=O)O[C@H]1C(=O)[C@@]2(C)[C@H]([C@H](OC(=O)c3ccccc3)[C@]3(O)C[C@H](OC(=O)[C@H](O)[C@@H](NC(=O)c4ccccc4)c4ccccc4)C(C)=C1C3(C)C)[C@]1(OC(C)=O)CO[C@@H]1C[C@@H]2O	> 80 µM (inactive)
Cc1cc(=O)oc2cc(OCC3CC(c4ccccc4Cl)=NO3)ccc12 (stereo unspecified)	5.52 µM
COc1cc([C@@H]2c3cc4c(cc3[C@@H](OC)[C@H]3COC(=O)[C@H]23)OCO4)cc(OC)c1O	> 80 µM (inactive)
COc1ccc(CNC(=O)c2c(C)oc3c2C(=O)c2ccccc2C3=O)cc1	2.15 µM
COC(=O)c1ccc(C)c(NS(=O)(=O)c2ccc3c(c2)OCCO3)c1	20.1 µM (inactive)
CCOC(=O)Nc1nc(-c2ccccc2)c(C(=O)c2ccccc2)s1	> 80 µM (inactive)

SMILES	IC50
COc1cccc(/C=N/Nc2ncnc3c2ncn3Cc2ccccc2)c1O	0.25 µM
CCc1ccc(S(=O)(=O)/N=C2\C=C(Nc3ccc(O)cc3)C(=O)c3ccccc32)cc1	1.1 µM
CC(C)Oc1ccccc1C1CC(=O)Nc2cc3c(cc21)OCCO3 (stereo unspecified)	2.69 µM
COc1cc(/C=C2/SC(=Nc3ccc(O)cc3)NC2=O)ccc1O	3.51 µM
COc1ccc(OC)c(CCNC(=O)Cn2nc(C)c3c(C)n(-c4ccc(C)cc4)nc3c2=O)c1	1.28 µM
COc1cc(NS(C)(=O)=O)ccc1Nc1c2ccccc2nc2ccccc12	> 80 µM (inactive)
CC(C)Cn1c(N)c(C(=O)CSc2ccc3c(c2)OCCO3)c(=O)n(C)c1=O	0.85 µM
CCCC(=O)Nc1nc2ccc(S(=O)(=O)N3CCCCC3)cc2s1	3.55 µM
CC[C@@]1(O)C(=O)OCc2c1cc1n(c2=O)Cc2cc3c(CN(C)C)c(O)ccc3nc2-1	29.3 µM (inactive)
Cc1cc(NC(=O)COC(=O)c2ccc(S(=O)(=O)N3CCCc4ccccc43)cc2)no1	28.3 µM (inactive)
CCCCOc1ccc(Br)cc1/C(C)=N/NC1=NCCN1	6.14 µM
Cc1csc2ncnc(NC3CCN(Cc4ccccc4)CC3)c12	2.22 µM
COc1cc2c(c(OC)c1OC)-c1ccc(O)cc1[C@@H](NC(C)=O)CC2	> 80 µM (inactive)
Cc1c(C(=O)N/N=C/c2c(O)ccc3ccccc23)nnn1-c1nonc1N	> 80 µM (inactive)
Cc1ccc2cccc(NS(=O)(=O)c3ccccc3)c2n1	> 80 µM (inactive)
COc1cccc(N2CCN(C(=O)c3ccc(CS(=O)c4ccccc4C)o3)CC2)c1 (stereo unspecified)	8.21 µM
COc1ccccc1-c1nnc2sc(-c3ccc(N(C)C)cc3)nn12	2.32 µM
COc1ccccc1C1=NOC(COc2ccc3c(C)cc(=O)oc3c2)C1 (stereo unspecified)	4.89 µM
CCOc1ccc(S(=O)(=O)NCc2ccccn2)cc1NC(=O)c1ccccc1F	> 80 µM (inactive)
Cc1ccc(/C=N/NC(=O)c2c(C)nc3ccc(Br)cn23)cc1	> 80 µM (inactive)
COc1ccc(NC(=O)Cn2nnc(-c3ccccc3NS(=O)(=O)c3ccc(OC)cc3)n2)cc1	13.6 µM
COc1cc(/C=C/C(=O)c2ccc([N+](=O)[O-])o2)ccc1O	7.49 µM
Cc1ccc(C(=O)c2cc([N+](=O)[O-])ccc2N2CCCCC2)cc1	4.17 µM
c1ccc2c(c1)CCN(c1ncnc3c1[nH]c1ccccc13)C2	1.43 µM

SMILES	IC50
Cn1nc([N+](=O)[O-])nc1Sc1nnc(-c2ccccc2)o1	37.5 µM (inactive)
CC(C)(C)c1ccc(C(=O)Nc2ccc(Oc3cccnc3)nc2)cc1	2.18 µM
COc1cc2nc(NC(=O)c3ccco3)sc(=O)c2cc1OC	66.7 µM (inactive)
CCOC(=O)c1[nH]c(C=O)c(C(=O)OCC)c1C	15.5 µM
COc1cccc(-c2cc(=O)c3cc(NC(=O)c4ccc(N(C)C)cc4)ccc3[nH]2)c1	> 80 µM (inactive)
COc1cccc(N/C(N)=N/c2nc(CSc3ccccn3)cc(=O)[nH]2)c1	5.9 µM
C/C(=N\NC(=O)c1cc(C)nc2ccccc12)c1ccccn1	3.06 µM
CC(C)CCOc1cccc(OCC(=O)Nc2ccncc2)c1	1.97 µM
COc1ccc(NS(=O)(=O)c2cc(-c3cnc(C4CC4)o3)ccc2C)cc1	9.37 µM
Cn1nc(CC(=O)Nc2ccc(N3CCN(C(=O)OC(C)(C)C)CC3)cc2)c2ccccc2c1=O	0.76 µM
CN1/C(=C\C(=O)C[n+]2ccc3ccccc3c2)C(C)(C)c2ccccc21	4.62 µM
CC[n+]1cc(C)ccc1/C=C/c1ccc(N(C)C)cc1	3.97 µM
Cc1sc2ncnc(NC3CCN(Cc4ccccc4)CC3)c2c1C	2.41 µM
CN=c1scc(-c2cccs2)n1/N=C/c1ccccc1O	< 0.16 µM
COc1ccccc1N=C(C)C1=C(O)CC(c2ccccc2)CC1=O (stereo unspecified)	0.78 µM
CCCCCC(=O)N[C@@H](c1ccccc1)[C@@H](O)C(=O)O[C@H]1C[C@@]2(O)[C@@H](OC(=O)c3ccccc3)C3[C@](C)(C(=O)[C@H](OC(C)=O)C(=C1C)C2(C)C)[C@@H](O)C[C@H]1OC[C@@]31OC(C)=O (stereo partly specified)	> 80 µM (inactive)
c1ccc(-c2noc(-c3ccc4c(c3)OCO4)n2)nc1	1.4 µM
COc1ccc(-c2c(C#N)c(N)nc3c2CCc2ccccc2-3)cc1OC	8.28 µM
COc1ccc(Br)cc1/C(C)=N/NC1=NCCN1	9.87 µM
CC1=C([N+](=O)[O-])C(c2ccccc2)C2=C(N1)c1ccccc1C2=O (stereo unspecified)	8.44 µM
C=CCn1c(C)cc(C2=NNC(=NCC)SC2)c1C	1.43 µM
CC(C)(C)OC(=O)NCCCCCc1cn(CC(=O)NCCCCCCCCCCC(=O)N2CCN(C(=O)OC(C)(C)C)CC2)nn1	0.22 µM
CCCC(=O)NC(c1ccc(C(C)C)cc1)c1ccc2cccnc2c1O (stereo unspecified)	0.66 µM
